Key:
STK33 = target: T1, STK33 (Homo sapiens, UniProt Q9BYT3); experiment: LanthaScreen Binding - Eu-anti-His; settings: read-out: Percentage of inhibition
T1 construct: purchased Life Technologies (SelectScreen Whole Panel service)
Method: (§1) We further evaluated the selectivity profile of compound 55 on a larger panel of kinases (SelectScreen Whole Panel, Life Technologies). The inhibition profile of 55, evaluated at 1 μM, is depicted on a dendrogram on Figure 3 where kinases inhibited by a minimum of 80% are shown. A full list of the kinases tested is shown on Table S1 in supplementary information.

STK39 (STLK3) = target: T2, STK39 (STLK3) (Homo sapiens, UniProt Q9UEW8); experiment: LanthaScreen Binding - Eu-anti-His; settings: read-out: Percentage of inhibition
T2 construct: purchased Life Technologies (SelectScreen service)
Method: as §1

CDK9/cyclin K = CDK9/cyclin K (Homo sapiens, UniProt P50750); experiment: LanthaScreen Binding - Eu-anti-His; settings: read-out: Percentage of inhibition
CDK9/cyclin K, sequence (P50750 whole entry): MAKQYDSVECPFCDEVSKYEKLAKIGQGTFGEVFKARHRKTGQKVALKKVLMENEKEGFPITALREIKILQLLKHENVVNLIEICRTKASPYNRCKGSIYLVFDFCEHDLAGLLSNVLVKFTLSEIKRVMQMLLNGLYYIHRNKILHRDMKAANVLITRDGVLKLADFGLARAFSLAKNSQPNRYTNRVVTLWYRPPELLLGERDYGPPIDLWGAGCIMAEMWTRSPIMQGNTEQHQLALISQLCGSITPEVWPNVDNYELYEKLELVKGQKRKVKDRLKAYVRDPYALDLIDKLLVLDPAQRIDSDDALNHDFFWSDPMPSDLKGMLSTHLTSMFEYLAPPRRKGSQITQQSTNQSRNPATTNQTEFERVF
CDK9/cyclin K, sequence (O75909 whole entry partner): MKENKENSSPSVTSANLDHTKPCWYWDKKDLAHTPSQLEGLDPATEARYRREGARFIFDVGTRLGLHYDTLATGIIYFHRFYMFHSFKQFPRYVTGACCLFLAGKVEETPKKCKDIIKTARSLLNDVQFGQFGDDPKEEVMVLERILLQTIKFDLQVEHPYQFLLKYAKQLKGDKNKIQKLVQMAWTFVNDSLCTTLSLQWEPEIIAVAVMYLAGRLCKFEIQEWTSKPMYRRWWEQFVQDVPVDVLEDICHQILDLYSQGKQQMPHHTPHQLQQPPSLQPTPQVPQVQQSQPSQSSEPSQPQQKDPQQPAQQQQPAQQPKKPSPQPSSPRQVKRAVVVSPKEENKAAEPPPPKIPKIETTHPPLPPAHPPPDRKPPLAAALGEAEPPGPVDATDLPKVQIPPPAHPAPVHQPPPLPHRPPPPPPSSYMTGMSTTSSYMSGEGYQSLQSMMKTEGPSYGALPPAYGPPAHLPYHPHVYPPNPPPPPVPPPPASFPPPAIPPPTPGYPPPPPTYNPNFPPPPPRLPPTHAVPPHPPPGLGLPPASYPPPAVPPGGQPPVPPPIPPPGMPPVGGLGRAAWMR
Method: as §1

AMPK (A2/B2/G1) = target: T3, AMPK (A2/B2/G1) (Homo sapiens, UniProt P54646); experiment: LanthaScreen Binding - Eu-anti-His; settings: read-out: Percentage of inhibition
T3 construct: purchased Life Technologies (SelectScreen service)
Method: as §1

MAP2K2 (MEK2) = target: T4, MAP2K2 (MEK2) (Homo sapiens, UniProt P36507); experiment: LanthaScreen Binding - Eu-anti-His; settings: read-out: Percentage of inhibition
T4 construct: purchased Life Technologies
T4 sequence (P36507 whole entry): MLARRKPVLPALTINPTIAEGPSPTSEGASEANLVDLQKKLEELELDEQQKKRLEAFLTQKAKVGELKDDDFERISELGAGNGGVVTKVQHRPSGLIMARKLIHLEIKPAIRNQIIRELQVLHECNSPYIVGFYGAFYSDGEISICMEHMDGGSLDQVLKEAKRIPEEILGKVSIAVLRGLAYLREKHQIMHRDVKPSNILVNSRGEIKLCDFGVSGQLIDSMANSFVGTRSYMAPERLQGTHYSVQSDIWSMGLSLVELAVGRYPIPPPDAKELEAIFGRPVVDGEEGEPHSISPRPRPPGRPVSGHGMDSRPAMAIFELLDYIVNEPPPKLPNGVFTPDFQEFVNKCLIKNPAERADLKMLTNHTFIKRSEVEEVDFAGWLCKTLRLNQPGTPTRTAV
Method: as §1

AMPK (A1/B2/G1) = target: T5, AMPK (A1/B2/G1) (Homo sapiens, UniProt Q13131); experiment: LanthaScreen Binding - Eu-anti-His; settings: read-out: Percentage of inhibition
T5 construct: purchased Life Technologies (SelectScreen service)
Method: as §1

LIMK1 = target: T6, LIMK1 (Homo sapiens, UniProt P53667); experiment: LanthaScreen Binding - Eu-anti-His; settings: read-out: Percentage of inhibition
T6 construct: purchased Life Technologies (SelectScreen service)
Method: as §1

MAP2K1 (MEK1) = target: T7, MAP2K1 (MEK1) (Homo sapiens, UniProt Q02750); experiment: LanthaScreen Binding - Eu-anti-His; settings: read-out: Percentage of inhibition
T7 construct: purchased Life Technologies (SelectScreen Whole Panel)
Method: as §1

BMPR2 = target: T8, BMPR2 (Homo sapiens, UniProt Q13873); experiment: LanthaScreen Binding - Eu-anti-His; settings: read-out: Percentage of inhibition
T8 construct: purchased Life Technologies (SelectScreen Whole Panel)
Method: as §1

KIT V654A = target: T9, KIT V654A (Homo sapiens, UniProt P10721, V654A); experiment: LanthaScreen Binding - Eu-anti-His; settings: read-out: Percentage of inhibition
T9 construct: purchased Life Technologies (SelectScreen service)
Method: as §1

AMPK (A1/B1/G3) = target: T10, AMPK (A1/B1/G3) (Homo sapiens, UniProt Q13131); experiment: LanthaScreen Binding - Eu-anti-His; settings: read-out: Percentage of inhibition
T10 construct: purchased Life Technologies (SelectScreen service)
Method: as §1

RIPK2 = RIPK2 (Homo sapiens, UniProt O43353); experiment: LanthaScreen Binding - Eu-anti-His; settings: read-out: Percentage of inhibition
Method: as §1

AMPK (A2/B2/G2) = target: T11, AMPK (A2/B2/G2) (Homo sapiens, UniProt P54646); experiment: LanthaScreen Binding - Eu-anti-His; settings: read-out: Percentage of inhibition
T11 construct: purchased Life Technologies (SelectScreen service)
Method: as §1

MAPK15 (ERK7) = MAPK15 (ERK7) (Homo sapiens, UniProt Q8TD08); experiment: LanthaScreen Binding - Eu-anti-His; settings: read-out: Percentage of inhibition
MAPK15 (ERK7), sequence (Q8TD08 whole entry): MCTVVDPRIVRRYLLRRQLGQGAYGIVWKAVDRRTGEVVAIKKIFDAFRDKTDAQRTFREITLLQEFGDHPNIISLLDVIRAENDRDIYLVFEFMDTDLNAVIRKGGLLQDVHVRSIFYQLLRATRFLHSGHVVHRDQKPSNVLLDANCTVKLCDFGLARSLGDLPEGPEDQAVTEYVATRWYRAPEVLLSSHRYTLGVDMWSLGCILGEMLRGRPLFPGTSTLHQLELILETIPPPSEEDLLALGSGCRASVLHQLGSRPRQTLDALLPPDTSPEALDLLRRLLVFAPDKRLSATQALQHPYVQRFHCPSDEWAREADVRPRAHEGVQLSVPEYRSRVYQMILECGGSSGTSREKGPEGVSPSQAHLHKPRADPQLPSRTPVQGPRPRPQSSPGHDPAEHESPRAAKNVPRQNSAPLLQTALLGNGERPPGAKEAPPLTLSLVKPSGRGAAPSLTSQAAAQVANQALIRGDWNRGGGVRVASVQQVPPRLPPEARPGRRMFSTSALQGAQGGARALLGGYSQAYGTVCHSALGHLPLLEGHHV
Method: as §1

EPHA3 = EPHA3 (Homo sapiens, UniProt P29320); experiment: LanthaScreen Binding - Eu-anti-His; settings: read-out: Percentage of inhibition
Method: as §1

[1] = target: T12, MAP2K1 (MEK1) S218D S222D (Homo sapiens, UniProt Q02750, S218D/S222D); experiment: LanthaScreen Binding - Eu-anti-His; settings: read-out: Percentage of inhibition
T12 construct: purchased Life Technologies (SelectScreen Whole Panel)
T12 sequence (Q02750 whole entry S218D/S222D): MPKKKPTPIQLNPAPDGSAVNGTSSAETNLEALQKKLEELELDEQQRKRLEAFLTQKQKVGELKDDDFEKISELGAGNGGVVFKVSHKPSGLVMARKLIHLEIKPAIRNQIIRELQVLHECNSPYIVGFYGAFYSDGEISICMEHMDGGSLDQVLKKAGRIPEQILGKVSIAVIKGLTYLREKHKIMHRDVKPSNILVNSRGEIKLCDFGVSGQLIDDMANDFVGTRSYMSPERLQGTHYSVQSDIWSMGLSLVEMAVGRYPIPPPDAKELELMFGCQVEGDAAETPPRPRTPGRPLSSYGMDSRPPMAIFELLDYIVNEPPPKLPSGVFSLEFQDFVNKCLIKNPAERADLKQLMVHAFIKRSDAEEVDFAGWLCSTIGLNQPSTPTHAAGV
Method: as §1

AMPK (A1/B1/G2) = target: T13, AMPK (A1/B1/G2) (Homo sapiens, UniProt Q13131); experiment: LanthaScreen Binding - Eu-anti-His; settings: read-out: Percentage of inhibition
T13 construct: purchased Life Technologies (SelectScreen service)
Method: as §1

STK16 (PKL12) = target: T14, STK16 (PKL12) (Homo sapiens, UniProt O75716); experiment: LanthaScreen Binding - Eu-anti-His; settings: read-out: Percentage of inhibition
T14 construct: purchased Life Technologies (SelectScreen Whole Panel)
T14 sequence (O75716 whole entry): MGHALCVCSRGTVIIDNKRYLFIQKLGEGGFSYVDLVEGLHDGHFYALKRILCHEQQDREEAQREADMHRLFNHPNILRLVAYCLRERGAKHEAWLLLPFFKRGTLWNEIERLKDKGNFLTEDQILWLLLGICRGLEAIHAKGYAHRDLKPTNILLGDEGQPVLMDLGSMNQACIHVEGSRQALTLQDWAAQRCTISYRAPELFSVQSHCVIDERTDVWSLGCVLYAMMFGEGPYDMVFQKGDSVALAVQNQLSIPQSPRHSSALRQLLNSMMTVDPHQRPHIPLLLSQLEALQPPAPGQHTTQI
Method: as §1

CDK8/cyclin C = target: T15, CDK8/cyclin C (Homo sapiens, UniProt P49336); experiment: LanthaScreen Binding - Eu-anti-His; settings: read-out: Percentage of inhibition
T15 construct: purchased Life Technologies
T15 sequence (P49336 whole entry): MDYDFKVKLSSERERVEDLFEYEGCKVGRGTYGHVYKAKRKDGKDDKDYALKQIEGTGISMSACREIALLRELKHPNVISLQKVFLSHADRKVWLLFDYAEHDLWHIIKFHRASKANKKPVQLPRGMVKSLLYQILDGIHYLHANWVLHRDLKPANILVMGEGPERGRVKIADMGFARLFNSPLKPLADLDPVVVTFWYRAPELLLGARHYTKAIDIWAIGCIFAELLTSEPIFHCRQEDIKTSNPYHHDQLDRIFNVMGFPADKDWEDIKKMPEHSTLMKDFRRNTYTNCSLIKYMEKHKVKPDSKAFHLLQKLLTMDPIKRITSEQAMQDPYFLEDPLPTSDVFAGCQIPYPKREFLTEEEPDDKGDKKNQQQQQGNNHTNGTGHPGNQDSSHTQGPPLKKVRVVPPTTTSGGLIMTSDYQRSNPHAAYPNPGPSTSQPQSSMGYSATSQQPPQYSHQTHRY
T15 sequence (P24863 whole entry partner): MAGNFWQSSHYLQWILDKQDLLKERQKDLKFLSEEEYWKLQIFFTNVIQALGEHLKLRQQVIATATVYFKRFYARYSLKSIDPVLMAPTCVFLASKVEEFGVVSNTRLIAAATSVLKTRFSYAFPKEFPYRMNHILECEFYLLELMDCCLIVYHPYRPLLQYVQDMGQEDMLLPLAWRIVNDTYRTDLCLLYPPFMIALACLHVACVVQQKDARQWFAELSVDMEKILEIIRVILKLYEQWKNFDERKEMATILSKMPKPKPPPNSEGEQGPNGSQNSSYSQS
Method: as §1

[2] = target: T16, MAP3K7/MAP3K7IP1 (TAK1-TAB1) (Homo sapiens, UniProt O43318); experiment: LanthaScreen Binding - Eu-anti-His; settings: read-out: Percentage of inhibition
T16 construct: purchased Life Technologies (SelectScreen Whole Panel)
Method: as §1

MAPK8 (JNK1) = target: T17, MAPK8 (JNK1) (Homo sapiens, UniProt P45983); experiment: LanthaScreen Binding - Eu-anti-His; settings: read-out: Percentage of inhibition
T17 construct: purchased Life Technologies (SelectScreen Whole Panel service)
Method: as §1

CAMKK1 (CAMKKA) = target: T18, CAMKK1 (CAMKKA) (Homo sapiens, UniProt Q8N5S9); experiment: LanthaScreen Binding - Eu-anti-His; settings: read-out: Percentage of inhibition
T18 construct: purchased Life Technologies (SelectScreen)
Method: as §1

ULK3 = target: T19, ULK3 (Homo sapiens, UniProt Q6PHR2); experiment: LanthaScreen Binding - Eu-anti-His; settings: read-out: Percentage of inhibition
T19 construct: purchased Life Technologies (SelectScreen Whole Panel service)
T19 sequence (Q6PHR2 whole entry): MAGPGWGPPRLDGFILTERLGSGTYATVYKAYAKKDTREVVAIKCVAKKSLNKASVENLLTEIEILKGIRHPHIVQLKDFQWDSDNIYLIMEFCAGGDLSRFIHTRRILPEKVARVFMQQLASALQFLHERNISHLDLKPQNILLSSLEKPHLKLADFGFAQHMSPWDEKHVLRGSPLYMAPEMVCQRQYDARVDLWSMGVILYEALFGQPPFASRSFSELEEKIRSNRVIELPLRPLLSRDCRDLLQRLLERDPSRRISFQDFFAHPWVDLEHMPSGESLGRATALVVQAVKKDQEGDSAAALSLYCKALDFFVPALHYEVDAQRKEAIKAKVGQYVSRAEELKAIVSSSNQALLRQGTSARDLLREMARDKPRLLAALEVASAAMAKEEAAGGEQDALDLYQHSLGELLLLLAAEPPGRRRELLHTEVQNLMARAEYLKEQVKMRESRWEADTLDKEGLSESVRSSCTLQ
Method: as §1

TEC = target: T20, TEC (Homo sapiens, UniProt P42680); experiment: LanthaScreen Binding - Eu-anti-His; settings: read-out: Percentage of inhibition
T20 construct: purchased Life Technologies
T20 sequence (P42680 whole entry): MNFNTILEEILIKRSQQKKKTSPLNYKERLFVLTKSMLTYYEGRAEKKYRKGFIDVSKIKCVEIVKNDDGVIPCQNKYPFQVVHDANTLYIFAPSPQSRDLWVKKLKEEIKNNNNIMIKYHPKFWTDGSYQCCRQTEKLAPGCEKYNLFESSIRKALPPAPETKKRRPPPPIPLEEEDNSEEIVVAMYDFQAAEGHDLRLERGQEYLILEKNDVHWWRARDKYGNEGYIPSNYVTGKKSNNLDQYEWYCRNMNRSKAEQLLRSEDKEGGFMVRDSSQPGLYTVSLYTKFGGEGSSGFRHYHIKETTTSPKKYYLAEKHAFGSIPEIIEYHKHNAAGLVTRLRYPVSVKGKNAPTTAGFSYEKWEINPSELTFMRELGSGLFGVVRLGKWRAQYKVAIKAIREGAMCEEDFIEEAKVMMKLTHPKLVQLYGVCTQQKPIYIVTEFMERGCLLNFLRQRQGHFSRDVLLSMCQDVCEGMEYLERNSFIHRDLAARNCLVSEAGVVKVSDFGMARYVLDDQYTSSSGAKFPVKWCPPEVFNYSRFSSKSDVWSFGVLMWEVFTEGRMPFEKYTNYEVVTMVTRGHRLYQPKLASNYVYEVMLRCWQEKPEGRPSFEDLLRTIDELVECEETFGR
Method: as §1

CLK4 = target: T21, CLK4 (Homo sapiens, UniProt Q9HAZ1); experiment: LanthaScreen Binding - Eu-anti-His; settings: read-out: Percentage of inhibition
T21 construct: purchased Life Technologies (SelectScreen Whole Panel)
T21 sequence (Q9HAZ1 whole entry): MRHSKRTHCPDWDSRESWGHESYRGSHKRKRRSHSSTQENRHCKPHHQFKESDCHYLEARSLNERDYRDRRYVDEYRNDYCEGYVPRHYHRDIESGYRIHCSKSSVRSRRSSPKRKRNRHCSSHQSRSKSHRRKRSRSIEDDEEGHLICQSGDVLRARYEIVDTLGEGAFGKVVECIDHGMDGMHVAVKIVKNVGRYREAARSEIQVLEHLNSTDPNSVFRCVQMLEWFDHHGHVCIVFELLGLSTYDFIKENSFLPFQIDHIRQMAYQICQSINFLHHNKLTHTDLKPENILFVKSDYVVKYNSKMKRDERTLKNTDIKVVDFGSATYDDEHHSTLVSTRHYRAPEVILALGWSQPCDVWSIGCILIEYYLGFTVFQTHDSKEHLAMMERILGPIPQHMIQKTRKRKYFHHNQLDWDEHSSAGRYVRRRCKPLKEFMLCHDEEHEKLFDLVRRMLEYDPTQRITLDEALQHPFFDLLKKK
Method: as §1

MAP2K6 (MKK6) = target: T22, MAP2K6 (MKK6) (Homo sapiens, UniProt P52564); experiment: LanthaScreen Binding - Eu-anti-His; settings: read-out: Percentage of inhibition
T22 construct: purchased Life Technologies (SelectScreen Whole Panel service)
Method: as §1

[3] = target: T23, MAP2K6 (MKK6) S207E T211E (Homo sapiens, UniProt P52564, S207E/T211E); experiment: LanthaScreen Binding - Eu-anti-His; settings: read-out: Percentage of inhibition
T23 construct: purchased Life Technologies (SelectScreen Whole Panel service)
Method: as §1

WNK1 = WNK1 (Homo sapiens, UniProt Q9H4A3); experiment: LanthaScreen Binding - Eu-anti-His; settings: read-out: Percentage of inhibition
Method: as §1

WNK3 = target: T24, WNK3 (Homo sapiens, UniProt Q9BYP7); experiment: LanthaScreen Binding - Eu-anti-His; settings: read-out: Percentage of inhibition
T24 construct: purchased Life Technologies (SelectScreen Whole Panel)
Method: as §1

DAPK2 = target: T25, DAPK2 (Homo sapiens, UniProt Q9UIK4); experiment: LanthaScreen Binding - Eu-anti-His; settings: read-out: Percentage of inhibition
T25 construct: purchased Life Technologies (SelectScreen service)
Method: as §1

MAPK9 (JNK2) = target: T26, MAPK9 (JNK2) (Homo sapiens, UniProt P45984); experiment: LanthaScreen Binding - Eu-anti-His; settings: read-out: Percentage of inhibition
T26 construct: purchased Life Technologies (SelectScreen service)
Method: as §1

[4] = system: U-2 OS, HCT116, MDA-MB231, SH-SY5Y and RPE-1 cell lines; experiment: Cell viability primary screen at 25 μM; type: cell-based, human; settings: 48 h
Method: HCT116 cells were cultured in McCoy’s medium. SH-SY5Y, MDA-MB231 and U-2 OS cells were cultured in Dulbecco's modified Eagle's medium (DMEM) and hTERT RPE-1 cells in DMEM:F12 medium. All media were supplemented with 10% foetal calf serum and cells were cultured at 37 °C in a 5% CO2 humidified atmosphere.
Cell viability was then assessed using the CellTiter96 AQueous cell proliferation assay from Promega according to the manufacturer’s instructions. Each experiment was done in triplicate and EC50 were determined from the dose-response curves according to the signal given by the control (0.1% DMSO) set at 100% viability using Prism GraphPad software.

[5] = target: T27, PIK3CA E545K/PIK3R1 (p110 alpha E545K/p85 alpha) (Homo sapiens, UniProt P42336, E545K); experiment: SelectScreen Adapta; type: biochemical; settings: ATP Km, read-out: Percentage of inhibition
T27 construct: purchased Life Technologies (SelectScreen Whole Panel)
Method: as §1

CDK7/cyclin H/MNAT1 = target: T28, CDK7/cyclin H/MNAT1 (Homo sapiens, UniProt P50613); experiment: SelectScreen Adapta; type: biochemical; settings: ATP Km, read-out: Percentage of inhibition
T28 construct: purchased Life Technologies
Method: as §1

COc1ccc2[nH]c3c(=O)[nH]c4ccc(O)cc4c3c2c1 [Compound 55, 2-Hydroxy-10-methoxy-5,7-dihydro-6H-indolo[2,3-c]quinolin-6-one]
melting point: 202 to 205 °C | inhibition at 1 µM (STK33): 46% | inhibition at 1 µM (STK39 (STLK3)): 24% | inhibition at 1 µM (CDK9/cyclin K): 59% | inhibition at 1 µM (AMPK (A2/B2/G1)): 70% | inhibition at 1 µM (MAP2K2 (MEK2)): 94% | inhibition at 1 µM (AMPK (A1/B2/G1)): 86% | inhibition at 1 µM (LIMK1): 23% | inhibition at 1 µM (MAP2K1 (MEK1)): 98% | inhibition at 1 µM (BMPR2): 116% | inhibition at 1 µM (KIT V654A): 25% | inhibition at 1 µM (AMPK (A1/B1/G3)): 82% | inhibition at 1 µM (RIPK2): 13% | inhibition at 1 µM (AMPK (A2/B2/G2)): 80% | inhibition at 1 µM (MAPK15 (ERK7)): 58% | inhibition at 1 µM (EPHA3): 13% | inhibition at 1 µM [1]: 98% | inhibition at 1 µM (AMPK (A1/B1/G2)): 81% | inhibition at 1 µM (STK16 (PKL12)): 51% | inhibition at 1 µM (CDK8/cyclin C): 40% | inhibition at 1 µM [2]: 98% | inhibition at 1 µM (MAPK8 (JNK1)): 43% | inhibition at 1 µM (CAMKK1 (CAMKKA)): 8% | inhibition at 1 µM (ULK3): 45% | inhibition at 1 µM (TEC): 4% | inhibition at 1 µM (CLK4): 100% | inhibition at 1 µM (MAP2K6 (MKK6)): 2% | inhibition at 1 µM [3]: 18% | inhibition at 1 µM (WNK1): 7% | inhibition at 1 µM (WNK3): 2% | inhibition at 1 µM (DAPK2): 90% | inhibition at 1 µM (MAPK9 (JNK2)): 25% | Reduction of cell viability compared to the DMSO control [4]: ≥ 75% | inhibition at 1 µM [5]: 51% | inhibition at 1 µM (CDK7/cyclin H/MNAT1): 27%

From paper PMC9186362, “Design and biological evaluation of substituted 5,7-dihydro-6H-indolo[2,3-c]quinolin-6-one as novel selective Haspin inhibitors” (Journal of Enzyme Inhibition and Medicinal Chemistry, 2022)
